# In patent EP2018861A1, “5HT6-Ligands such as sulfonamide derivatives in drug-induced weight-gain” (Laboratorios del Dr. Esteve S.A., priority 2007, dated 2009):
# How the values were obtained:
# [1] = Feeding study in dietary-induced obese (DIO) rats, comparison with sibutramine; type: in vivo, female Wistar rats; conditions: for body weight compared with the vehicle-treated controls / daily food intake: 28 days; for body weight compared with the vehicle-treated controls / daily food intake / days on which the decreases of food intake were statistically significant versus the vehicle-treated control group / weighed less than the vehicle-treated controls: COMPOUND 1 30 mg/kg po bid; for body weight compared with the vehicle-treated controls: sibutramine 5 mg/kg/day po once daily (Figure 4); for daily food intake: sibutramine 5 mg/kg/day po once daily (Figure 5); for days on which the decreases of food intake were statistically significant versus the vehicle-treated control group / weighed less than the vehicle-treated controls: sibutramine 5 mg/kg/day po; for weighed less than the vehicle-treated controls: end of treatment period (Day 28); for weight reductions: over the 28 daily treatment period, DIO rat (Figure 4)
# Protocol: The experiment was performed on female Wistar rats (originally in the weight range 250-300 g). The rats were housed in pairs in polypropylene cages with solid floors and sawdust bedding at a temperature of 21±4°C and 55±20% humidity. Animals were maintained on a reverse phase light-dark cycle (lights off for 8 h from 09.30-17.30 h) during which time the room was illuminated by red light. Animals had free access to powdered high fat diet (VRF1 plus 20% lard), ground chocolate, ground peanuts and tap water at all times. The three different diets were contained in separate glass feeding jars with aluminum lids with a 3-4 cm hole cut in them to allow access to the food. Animals were housed in pairs for twelve weeks for the induction of obesity. Animals were then housed singly in polypropylene cages with wire grid floors to enable the food intake of each rat to be recorded. Polypropylene trays with cage pads were placed beneath each cage to detect any food spillage. Animals were accustomed to these new conditions (individual housing and the wire-grid floor cages) for at least 14 days before the start of the baseline readings.
# At the start of the first DIO study, animals were weighed (to the nearest 0.1 g using an electronic top-pan balance) and allocated into 3 weight-matched treatment groups, each containing 10 animals. Following a 7 day baseline run-in period, during which time all animals were dosed orally once a day with vehicle (0.5% hydroxypropylmethylcellulose), rats were dosed for 28 days with vehicle at 0 and 6 h or test compound either COMPOUND 1 (30 mg/kg, p.o., twice a day at 0 and 6 h) or sibutramine (5 mg/kg, p.o. at 0 h / vehicle p.o. at 6 h). The first compound dose was given at the onset of the 8 h dark period (0 h). This strategy was taken to maximise the impact of any inhibitory effect of the compounds on food intake as rats are predominantly nocturnal feeders. Six hours later, animals were dosed again with either vehicle or compounds.
# Food intake and body weight were measured once daily. Variations in body weight and energy levels of the different types of food were accounted for by expressing the food intake results in terms of kJ/kg rat weight.
# (§1) Statistical comparisons between the body weights and daily food intakes of the different treatment groups have been made by analysis of covariance followed by Dunnett's test to compare each treatment group with the vehicle-treated controls. For the body weight data (body weights each day), the weights of the animals on Day 1 (ie immediately before the first drug treatment) were used as the covariate. Thus, means were adjusted for differences in body weight between the groups on Day 1 and standard errors of the mean (SEM) were calculated from the residuals of the statistical model. All mean body weight values on Day 1 are identical (and SEM are therefore zero) because the analysis of covariance adjusts them all to equal the 'grand mean' of the values of this day.
# [2] = molecular target: human variant of the 5-HT6 receptor (Homo sapiens, UniProt P50406); conditions: Romero et al, 2006; cited from earlier work
# human 5-HT6 receptors = molecular target: T1, human 5-HT6 receptors (Homo sapiens, UniProt P50406); experiment: Radiolabelled ligand-receptor binding ([3H]-LSD) on cloned/transfected human 5-HT6 receptors; conditions: equated from the pKi value
# T1 construct: purchased Perkin-Elmer; host or cells: HEK-293 (stably transfected), membranes
# T1 sequence (P50406 whole entry): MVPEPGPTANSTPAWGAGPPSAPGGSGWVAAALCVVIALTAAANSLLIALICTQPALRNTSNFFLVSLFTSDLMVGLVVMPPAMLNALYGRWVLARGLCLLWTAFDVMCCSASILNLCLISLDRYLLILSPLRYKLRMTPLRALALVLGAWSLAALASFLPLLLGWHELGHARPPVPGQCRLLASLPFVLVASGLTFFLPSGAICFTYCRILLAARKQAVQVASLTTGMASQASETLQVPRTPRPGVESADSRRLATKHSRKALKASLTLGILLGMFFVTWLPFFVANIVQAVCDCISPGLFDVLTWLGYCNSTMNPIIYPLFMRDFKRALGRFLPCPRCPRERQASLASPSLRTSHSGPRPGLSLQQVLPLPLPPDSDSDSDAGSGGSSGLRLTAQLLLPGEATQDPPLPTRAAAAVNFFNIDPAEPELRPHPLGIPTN
# Protocol: To investigate the binding properties of 5-HT6 receptor ligands to human 5-HT6 receptors, transfected HEK-293 membranes from Perkin-Elmer and [3H]-LSD (NEN), as the radioligand, were used. The assay was carried out in 96-well plates with a total reaction volume of 200 µl, containing 100 µl of membrane suspension (35 µg protein/well), 10 µl of [3H]-LSD (2.7 nM) in either the absence or presence of 90 µl of either buffer or methiothepin (5 µM) for total and non-specific binding, respectively. Binding buffer contained 50 mMTris-HCl, 10 mM MgCl2 and 0.5 mM EDTA at pH 7.4. Plates were incubated at 37 °C for 60 minutes. After the incubation period, 170 µl of incubate were transferred to MultiScreen HTS, FC plates (Millipore), filtered and plates were washed 3 times with ice-cold 50mM Tris-HCl (pH 7.4). Filters were dried and counted at approximately 40% efficiency in a MicroBeta scintillation counter (Perkin-Elmer) using 25 µl per well of EcoScint liquid scintillation cocktail.
# [3] = molecular target: rat variant of the 5-HT6 receptor (Rattus norvegicus, UniProt P31388); conditions: Romero et al, 2006; cited from earlier work
# [4] = Feeding study: olanzapine-induced weight-gain and hyperphagia in rats on a high-fat diet; type: in vivo, female Sprague-Dawley rats; conditions: olanzapine 3 mg/kg po; for Mean body weight (g) Day 15: after 14 days of treatment, high-fat diet; for Mean body weight (g) Day 15 / Mean body weight (g) Day 0: n=10; for Mean body weight (g) Day 0: before treatment (baseline)
# Protocol: The experiment was performed on 40 female Sprague-Dawley rats (originally in the weight range 250-300 g). The animal room was maintained at a temperature of 21±4°C and 55±20% humidity and on a reversed phase light-dark cycle (lights off for 8 h from 09.30-17.30 h) during which time the room was illuminated by red light. Animals had free access to powdered high fat diet (VRF1 plus 20% lard). The diet was contained in a glass feeding jar with an aluminium lid with a 3-4 cm hole cut in it to allow access to the food. Animals were housed singly in polypropylene cages with wire grid floors to enable the food intake of each rat to be recorded. Polypropylene trays containing cage pads were placed beneath each cage to detect any food spillage. Animals were accustomed to these new conditions (individual housing and the wire-grid floor cages) for at least 14 days before the start of the baseline readings.
# Approximately a week before the start of the study, animals were weighed (to the nearest 0.1 g using an electronic top-pan balance) and allocated into 4 weight-matched treatment groups, each containing 10 animals. Following a 7 day baseline run-in period, during which the animals were dosed orally with vehicle (0.5% hydroxypropylmethylcellulose), to acclimatise them to dosing/handling, the rats were given treatments, described in the Table below, for 14 days.
# Food intake and body weight were measured once daily. Variations in body weight were accounted for by expressing the food intake results in terms of g/kg rat weight.
# as §1, with “body weights of the” for “body weights and daily food intakes of the”, “treatment groups were made by” for “treatment groups have been made by”, “followed by multiple t tests (two-tailed) to compare” for “followed by Dunnett's test to compare”, “(body weights recorded each day),” for “(body weights each day),”
# Statistical comparisons between the food intakes of the different treatment groups were made by analysis of covariance followed by multiple t tests (two-tailed) to compare each treatment group with the vehicle-treated controls. Food intake of the animals at baseline (ie average of Day -6 to Day 0) was used as the covariate. Standard errors of the mean (SEM) were calculated from the residuals of the statistical model.
# Analysis of body weights and average daily food intakes were also performed to analyse cumulative food intake and body weight changes. Analysis of covariance followed by post-hoc Student's t-test (two-tailed) was used to compare the average daily food intakes over Week 1 and Week 2 for COMPOUND 1 treatment group versus (a) the vehicle-treated and (b) the olanzapine-treated groups of rats. The body weights of all groups of rats before and after treatment were statistically compared pair-wise using Student's paired t-test (two-tailed).
# [5] = 5-HT6 antagonists; Svartengren et al, 2004; Shacham et al, 2006; cited from earlier work
# 5-HT6 receptors = 5-HT6 receptors (Rattus norvegicus, UniProt P31388); conditions: Roth et al, 1994; cited from earlier work
# 5-HT6 receptors, sequence (P31388 whole entry): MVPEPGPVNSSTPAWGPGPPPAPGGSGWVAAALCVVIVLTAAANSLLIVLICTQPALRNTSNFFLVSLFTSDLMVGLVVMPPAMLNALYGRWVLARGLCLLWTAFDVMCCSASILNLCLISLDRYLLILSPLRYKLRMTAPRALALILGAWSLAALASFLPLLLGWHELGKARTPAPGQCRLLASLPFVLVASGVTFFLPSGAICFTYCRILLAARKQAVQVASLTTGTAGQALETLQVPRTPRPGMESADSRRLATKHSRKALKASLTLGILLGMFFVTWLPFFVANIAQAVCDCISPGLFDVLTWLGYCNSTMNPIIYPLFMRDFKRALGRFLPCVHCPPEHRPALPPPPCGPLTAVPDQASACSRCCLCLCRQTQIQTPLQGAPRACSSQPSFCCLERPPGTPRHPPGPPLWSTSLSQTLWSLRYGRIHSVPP
# [6] = repeated sibutramine administration, 14 days (Figure 7); cited from earlier work
smiles,measurement,setting,value
"CN(C)CCc1c[nH]c2ccc(NS(=O)(=O)c3ccc4c(Cl)cccc4c3)cc12 [COMPOUND 1, 5-Chloro-naphthalene-2-sulfonic acid [3-(2-dimethylamino-ethyl)-1H-indol-5-yl]-amide]",body weight compared with the vehicle-treated controls,[1],marked and sustained decrease in the body weights
same,daily food intake,[1],reduction in daily food intake
same,days on which the decreases of food intake were statistically significant versus the vehicle-treated control group,[1],Day 2 to Day 8
same,weighed less than the vehicle-treated controls,[1],15.6%
same,weight reductions,[1],greater than 10%
same,functionality at the 5-HT6 receptor,[2],agonist
same,Ki,human 5-HT6 receptors,740 pM
same,functionality at the 5-HT6 receptor,[3],agonist
same,body weight compared to the vehicle + vehicle-treated control,"[4]; 14 days, COMPOUND 1 30 mg/kg po bid, high-fat diet (Figure 1)",gradual decrease in body weight
same,daily food intake compared to the vehicle-treated controls,"[4]; 14 days, COMPOUND 1 30 mg/kg po bid, high-fat diet (Figure 2)",markedly reduced their food intakes
same,cumulative intake of food over the first week compared to the vehicle controls,"[4]; Week 1, COMPOUND 1 30 mg/kg po bid (Figure 3)",statistically lower (p < 0.001)
same,Mean body weight (g) Day 15,[4]; COMPOUND 1 30 mg/kg po bid,289.5 ± 6.1 g
same,Mean body weight (g) Day 0,[4]; COMPOUND 1 30 mg/kg po bid,292.8 ± 7.2 g
Cc1cc2c(s1)Nc1ccccc1N=C2N1CCN(C)CC1 [Olanzapine],Mean body weight (g) Day 15,[4]; COMPOUND 1 30 mg/kg po bid,333.0 ± 8.2 g
same,Mean body weight (g) Day 0,[4]; COMPOUND 1 30 mg/kg po bid,296.9 ± 7.2 g
COc1cc(Cl)cc(C(C)Nc2cc(N3CCNCC3)ccc2S(C)(=O)=O)c1OC.Cl (stereo not shown) [PRX-07034],food intake and body weight in obese rodents,[5],reduce food intake and produce sustained weight-loss
OC1(c2ccc(Cl)c(C(F)(F)F)c2)CCN(CCCC(c2ccc(F)cc2)c2ccc(F)cc2)CC1 [penfluridol],affinity for this 5-HT receptor subtype (5-HT6),5-HT6 receptors,no relevant affinity
CCN1CCC[C@H]1CNC(=O)c1c(O)c(Cl)cc(Cl)c1OC [raclopride],affinity for this 5-HT receptor subtype (5-HT6),5-HT6 receptors,no relevant affinity
C[C@@H]1CN(CCCn2c3ccccc3c3ccccc32)C[C@H](C)N1 [rimcazole],affinity for this 5-HT receptor subtype (5-HT6),5-HT6 receptors,no relevant affinity
CC(C)CC(N(C)C)C1(c2ccc(Cl)cc2)CCC1 (stereo not shown) [sibutramine],body weight compared with the vehicle-treated controls,[1],significant body weight-loss
same,daily food intake,[1],significant reduction of food intake
same,days on which the decreases of food intake were statistically significant versus the vehicle-treated control group,[1],Day 1 to Day 5
same,weighed less than the vehicle-treated controls,[1],10.8%
same,weight reductions,[1],greater than 10%
same,effect on the weight-gain evoked by olanzapine,[6],only partially to attenuate the weight-gain
